We go through 37 compounds from patent US9611221B2, “Histone demethylase inhibitors” (CELGENE QUANTICEL RESEARCH, INC., priority 2012, dated 2017).

In this test the target is JMJD2C (Homo sapiens (Human), UniProt Q9H3R0). Put plainly: JMJD2C in vitro enzyme inhibition assay (TR-FRET). In kind it is biochemical. To be noted: 0.3 nM JMJD2C, 300 nM H3K9me3-biotin peptide, 2 μM alpha-ketoglutaric acid. The text has this:
This assay determines the ability of a test compound to inhibit Jarid1A, Jarid1B, and JMJD2C demethylase activity. Baculovirus expressed Jarid1A (GenBank Accession #NM_001042603, AA1-1090) was purchased from BPS Bioscience (Cat#50110). Baculovirus expressed Jarid1B (GenBank Accession #NM_006618, AA 2-751) was purchased from BPS Bioscience (Cat #50121) or custom made by MolecularThroughput. Baculovirus expressed JMJD2C (GenBank Accession #BC143571, AA 2-372) was purchased from BPS Bioscience (Cat#50105).
The ability of test compounds to inhibit the activity of JMJD2C was determined in 384-well plate format under the following reaction conditions: 0.3 nM JMJD2C, 300 nM H3K9me3-biotin labeled peptide (Anaspec cat #64360), 2 μM alpha-ketoglutaric acid in assay buffer of 50 mM HEPES, pH7.3, 0.005% Brij35, 0.5 mM TCEP, 0.2 mg/ml BSA, 50 μM sodium L-ascorbate, and 2 μM ammonium iron(II) sulfate. Reaction product was determined quantitatively by TR-FRET after the addition of detection reagent Phycolink Streptavidin-allophycocyanin (Prozyme) and Europium-anti-di-methylated histone H3 lysine 9 (H3K9me2) antibody (PerkinElmer) in the presence of 5 mM EDTA in LANCE detection buffer (PerkinElmer) at a final concentration of 50 nM and 1 nM, respectively.
The reaction mixture was incubated at room temperature for 30 minutes, and terminated by the addition of 6 μl of 5 mM EDTA in LANCE detection buffer containing 100 nM Phycolink Streptavidin-allophycocyanin and 2 nM Europium-anti-H3K9me2 antibody. Plates were read by EnVisionMultilabel Reader in TR-FRET mode (excitation at 320 nm, emission at 615 nm and 665 nm) after 1 hour incubation at room temperature. A ratio was calculated (665/615) for each well and fitted to determine inhibition constant (IC50).

pIC50: −log10 of the molar value.

Sequence of JMJD2C (Q9H3R0 2-372): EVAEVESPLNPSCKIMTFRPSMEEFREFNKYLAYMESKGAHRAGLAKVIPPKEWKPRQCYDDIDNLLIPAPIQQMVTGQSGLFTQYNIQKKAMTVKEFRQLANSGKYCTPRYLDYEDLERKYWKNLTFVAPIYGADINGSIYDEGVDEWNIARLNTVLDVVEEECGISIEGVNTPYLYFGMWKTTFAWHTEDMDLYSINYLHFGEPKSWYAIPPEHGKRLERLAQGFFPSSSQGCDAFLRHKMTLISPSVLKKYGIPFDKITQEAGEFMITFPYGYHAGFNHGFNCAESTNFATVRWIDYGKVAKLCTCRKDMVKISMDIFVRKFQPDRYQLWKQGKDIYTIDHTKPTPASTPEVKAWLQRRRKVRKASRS

Broadly, the pIC50 is the negative decadic logarithm of the IC50, by convention in mol/L. Read a low pIC50 as a high IC50. With `COc1cccc2c1CCCC2CNc1cnccc1C(=O)O` (stereo not shown) [Example 74, 3-{[(5-methoxy-1,2,3,4-tetrahydronaphthalen-1-yl)methyl]amino}pyridine-4-carboxylic acid], the negative-log IC50 (pIC50) is 6.00 to 7.00.

Compound `O=C(O)c1ccncc1NCC1CCCc2cc(OCC(F)(F)F)ccc21` (stereo not shown) [Example 90, 3-({[6-(2,2,2-trifluoroethoxy)-1,2,3,4-tetrahydronaphthalen-1-yl]methyl}amino)pyridine-4-carboxylic acid] showed a pIC50 of 6.00 to 7.00.

On to `O=C(O)c1ccncc1NC[C@H]1CCOc2cc(-c3ccccc3F)ccc21` [Example 95, 3-({[(4S)-7-(2-fluorophenyl)-3,4-dihydro-2H-chromen-4-yl]methyl}amino)pyridine-4-carboxylic acid], for which the pIC50 is 6.00 to 7.00.

In turn, `CC(C)Oc1ccc(CNc2cnccc2C(=O)O)cc1` [Example 11, 3-{[4-(propan-2-yloxy)benzyl]amino}pyridine-4-carboxylic acid] gave a pIC50 of 6.00 to 7.00.

In the case of `COc1ccc2c(c1)CCC[C@H]2CNc1cnccc1C(=O)O` [Example 62, 3-({[(1R)-6-methoxy-1,2,3,4-tetrahydronaphthalen-1-yl]methyl}amino)pyridine-4-carboxylic acid], the pIC50 was 6.00 to 7.00.

As for `CC(C)Oc1ccc2c(c1)CCCC2CNc1cnccc1C(=O)O` (stereo not shown) [Example 64], the pIC50 was 6.00 to 7.00.

`Cc1cc(C)c2c(c1)C(CNc1cnccc1C(=O)O)CCC2` (stereo not shown) [Example 52, 3-{[(5,7-dimethyl-1,2,3,4-tetrahydronaphthalen-1-yl)methyl]amino}pyridine-4-carboxylic acid] gave a pIC50 of 5.00 to 6.00.

With `O=C(O)c1ccncc1NC[C@H]1CCCc2c(F)cccc21` [Example 56, 3-({[(1S)-5-fluoro-1,2,3,4-tetrahydronaphthalen-1-yl]methyl}amino)pyridine-4-carboxylic acid], the negative-log IC50 (pIC50) was at least 7.00.

Take `CN1CCC(CNc2cnccc2C(=O)O)c2ccccc21` (stereo not shown) [Example 82, 3{[(1-methyl-1,2,3,4-tetrahydroquinolin-4-yl)methyl]amino}pyridine-4-carboxylic acid]: the pIC50 is 6.00 to 7.00.

With `O=C(O)c1ccncc1NCC1CCOc2cc(F)ccc21` (stereo not shown) [Example 70, 3-{[(7-fluoro-3,4-dihydro-2H-chromen-4-yl)methyl]amino}pyridine-4-carboxylic acid], the pIC50 is 6.00 to 7.00.

Regarding `O=C(O)c1ccncc1NCC1CCCc2c(OCC3CC3)cccc21` (stereo not shown) [Example 76], the pIC50 is 5.00 to 6.00.

`O=C(O)c1ccncc1NCC1CCCc2cc(OCCc3ccccc3)ccc21` (stereo not shown) [Example 89, 3-({[6-(2-phenylethoxy)-1,2,3,4-tetrahydronaphthalen-1-yl]methyl}amino)pyridin-4-carboxylic acid] showed a negative logarithm of the IC50 (pIC50) of 6.00 to 7.00.

`O=C(O)c1ccncc1NCC1(O)CCCc2c(F)cccc21` (stereo not shown) [Example 55, 3-{[(5-fluoro-1-hydroxy-1,2,3,4-tetrahydronaphthalen-1-yl)methyl]amino}pyridine-4-carboxylic acid] showed a negative-log IC50 (pIC50) of 6.00 to 7.00.

Regarding `O=C(O)c1ccncc1NC[C@@H]1CCCc2cc(OCCC3CC3)ccc21` [Example 98, 3-({[(1R)-6-(2-cyclopropylethoxy)-1,2,3,4-tetrahydronaphthalen-1-yl]methyl}amino)pyridine-4-carboxylic acid], the negative-log IC50 (pIC50) was 5.00 to 6.00.

As to `Cc1ccc2c(c1C)CCCC2CNc1cnccc1C(=O)O` (stereo not shown) [Example 103, 3-{[(5,6-dimethyl-1,2,3,4-tetrahydronaphthalen-1-yl)methyl]amino}pyridine-4-carboxylic acid], the negative logarithm of the IC50 (pIC50) is 6.00 to 7.00.

Compound `O=C(O)c1ccncc1NCC1CCOc2cc(Cl)ccc21` (stereo not shown) [Example 66, 3-{[(7-chloro-3,4-diydro-2H-chromen-4-y)methyl]amino}pyridine-4-carboxylic acid] gave a pIC50 of 6.00 to 7.00.

With `O=C(O)c1ccncc1NC[C@@H]1CCOc2cc(-c3cccc(F)c3)ccc21` [Example 86, 3-({[(4R)-7-(3-fluorophenyl)-3,4-dihydro-2H-chromen-4-yl]methyl}amino)pyridine-4-carboxylic acid], the negative-log IC50 (pIC50) was 5.00 to 6.00.

`COc1ccc2c(c1F)CCCC2CNc1cnccc1C(=O)O` (stereo not shown) [Example 102, 3-{[(5-fluoro-6-methoxy-1,2,3,4-tetrahydronaphthalen-1-yl)methyl]amino}pyridine-4-carboxylic acid] had a pIC50 of 6.00 to 7.00.

As for “3-{[(7-fluoro-3,4-dihydro-2H-chromen-4- yl)methyl]amino}pyridine-4-carboxylic acid [Example 65]”, the pIC50 was at least 7.00.

As to `O=C(O)c1ccncc1NC[C@@H]1CCOc2cc(C3CC3)ccc21` [Example 88, 3-({[(4R)-7-cyclopropyl-3,4-dihydro-2H-chromen-4-yl]methyl}amino)pyridine-4-carboxylic acid], the negative-log IC50 (pIC50) was 6.00 to 7.00.

Regarding `O=C(O)c1ccncc1NCC1CCCc2cc(OCC3CC3)ccc21` (stereo not shown) [Example 81], the negative logarithm of the IC50 (pIC50) was 6.00 to 7.00.

With `O=C(O)c1ccncc1NCC1CCOc2c(F)cccc21` (stereo not shown) [Example 71, 3-{[(8-fluoro-3,4-dihydro-2H-chromen-4-yl)methyl]amino}pyridine-4-carboxylic acid], the negative-log IC50 (pIC50) was at least 7.00.

`O=C(O)c1ccncc1NCC1CCSc2ccccc21` (stereo not shown) [Example 78, 3-[(3,4-dihydro-2H-thiochromen-4-ylmethyl)amino]pyridine-4-carboxylic acid] showed a negative-log IC50 (pIC50) of 6.00 to 7.00.

As to `O=C(O)c1ccncc1NC[C@H]1CCOc2cc(C3CC3)ccc21` [Example 87, 3-({[(4S)-7-cyclopropyl-3,4-dihydro-2H-chromen-4-yl]methyl}amino)pyridine-4-carboxylic acid], the negative logarithm of the IC50 (pIC50) was at least 7.00.

Take “3-{[(6-chloro-1,2,3,4-tetrahydronaphthalen-1- yl)methyl]amino}pyridine-4-carboxylic acid [Example 68]”: the pIC50 is 6.00 to 7.00.

On to `O=C(O)c1ccncc1NCC1CCCc2c(Oc3ccccc3)cccc21` (stereo not shown) [Example 77, 3-{[(5-phenoxy-1,2,3,4-tetrahydronaphthalen-1-yl)methyl]amino}pyridine-4-carboxylic acid], for which the pIC50 is 5.00 to 6.00.

For the compound `O=C(O)c1ccncc1NC[C@H]1CCCc2cc(OCCC3CC3)ccc21` [Example 97, 3-({[(1S)-6-(2-cyclopropylethoxy)-1,2,3,4-tetrahydronaphthalen-1-yl]methyl}amino)pyridine-4-carboxylic acid], the negative-log IC50 (pIC50) was 6.00 to 7.00.

In turn, `O=C(O)c1ccncc1NC[C@@H]1CCOc2cc(-c3ccccc3F)ccc21` [Example 96, 3-({[(4R)-7-(2-fluorophenyl)-3,4-dihydro-2H-chromen-4-yl]methyl}amino)pyridine-4-carboxylic acid] gave a pIC50 of 5.00 to 6.00.

Regarding `O=C(O)c1ccncc1NCC1CCCc2c(F)cccc21` (stereo not shown) [Example 54, 3-{[(5-fluoro-1,2,3,4-tetrahydronaphthalen-1-yl)methyl]amino}pyridine-4-carboxylic acid], the pIC50 was 6.00 to 7.00.

`O=C(O)c1ccncc1NCC1CCCc2ccc(Cl)cc21` (stereo not shown) [Example 72, 3-{[(7-chloro-1,2,3,4-tetrahydronaphthalen-1-yl)methyl]amino}pyridine-4-carboxylic acid] showed a pIC50 of 6.00 to 7.00.

Take `CC1(C)CCC(CNc2cnccc2C(=O)O)c2ccccc21` (stereo not shown) [Example 59, 3-{[(4,4-dimethyl-1,2,3,4-tetrahydronaphthalen-1-yl)methyl]amino}pyridine-4-carboxylic acid]: the pIC50 is 6.00 to 7.00.

`O=C(O)c1ccncc1NC[C@H]1CCOc2cc(-c3cccc(F)c3)ccc21` [Example 85, 3-({[(4S)-7-(3-fluorophenyl)-3,4-dihydro-2H-chromen-4-yl]methyl}amino)pyridine-4-carboxylic acid] gave a pIC50 of 6.00 to 7.00.

As to “3-{[(6-chloro-1-hydroxy-1,2,3,4- tetrahydronaphthalen-1- yl)methyl]amino}pyridine-4-carboxylic acid [Example 67]”, the pIC50 is 6.00 to 7.00.

`O=C(O)c1ccncc1NCC1CCOc2cc(C3CC3)ccc21` (stereo not shown) [Example 75, 3-{[(7-cyclopropyl-3,4-dihydro-2H-chromen-4-yl)methyl]amino}pyridine-4-carboxylic acid] gave a negative logarithm of the IC50 (pIC50) of 6.00 to 7.00.

Turning to `O=C(O)c1ccncc1NC[C@H]1CCCc2cc(OCCC(F)(F)F)ccc21` [Example 99, 3-({[(1S)-6-(3,3,3-trifluoropropoxy)-1,2,3,4-tetrahydronaphthalen-1-yl]methyl}amino)pyridine-4-carboxylic acid], the pIC50 is 6.00 to 7.00.

`O=C(O)c1ccncc1NCC1CCOc2cc(CCC3CC3)ccc21` (stereo not shown) [Example 91, 3-({[7-(2-cyclopropylethyl)-3,4-dihydro-2H-chromen-4-yl]methyl}amino)pyridine-4-carboxylic acid] gave a negative-log IC50 (pIC50) of 6.00 to 7.00.

`O=C(O)c1ccncc1NC[C@@H]1CCOc2cc(-c3ccccc3)ccc21` [Example 84, 3-({[(4R)-7-phenyl-3,4-dihydro-2H-chromen-4-yl]methyl}amino)pyridine-4-carboxylic acid] showed a negative-log IC50 (pIC50) of 6.00 to 7.00.
